Patent publication US20040023884A1, “Biologically active peptides from functional domains of bactericidal/permeability-increasing protein and uses thereof” (priority 1993, published 2004)
Entries after “also recorded” stand apart in the source; their conditions may differ.

Experiments:
[1] = system: E. coli strain 07-K1; assay: Radial diffusion bactericidal assay, E. coli 07-K1; format: cell-based; details: FIG. 10c
Method: BPI proteolytic fragments produced according to Example 1 were screened for bactericidal effects using rough mutant E. coli J5 bacteria in a radial diffusion assay. Specifically, an overnight culture of E. coli J5 was diluted 1:50 into fresh tryptic soy broth and incubated for 3 hours at 37° C. to attain log phase growth of the culture. Bacteria were then pelleted at 3,000 rpm for 5 minutes in a Sorvall RT6000B centrifuge (Sorvall Instruments, Newton, Conn.). 5 mL of 10 mM sodium phosphate buffer (pH 7.4) was added and the preparation was re-pelleted. […] The bacteria were diluted to 4×10^6 CFU/mL in 10 mL of molten underlayer agarose (at approximately 45° C.) and inverted repeatedly to mix in 15 mL polypropylene tubes conventionally used for this purpose.
The entire contents of such tubes were then poured into a level square petri dish and distributed evenly by rocking the dish side-to-side. […] A series of wells were then punched into the hardened agarose using a sterile 3 mm punch attached to a vacuum apparatus. The punch was sterilized with 100% alcohol and allowed to air dry prior to use to avoid contaminating the bacterial culture.
5 or 10 μL of each of the BPI fragments were carefully pipetted into each well. As a negative control, dilution buffer (pH 8.3) was added to a separate well, and rBPI23 at concentrations of 5 μg/mL and 1 μg/mL were also added as positive controls. Each plate was incubated at 37° C. for 3 hours, and then 10 mL of molten overlayer agarose (at approximately 45° C.) was added into the level petri dish, allowed to harden and incubated overnight at 37° C. […] The bacterial zones were measured with a micrometer.
Additional experiments were performed using various other bacteria as target cells to examine the range of bactericidal killing of these BPI functional domain peptides.

[2] = system: E. coli 0113 LPS; assay: Limulus Amoebocyte Lysate (LAL) inhibition assay; format: biochemical
Method: BPI proteolytic fragments produced according to Example 1 were subjected to a Limulus Amoebocyte Lysate (LAL) inhibition assay to determine LPS binding properties of these fragments. Specifically, each of the fragments were mixed in Eppendorf tubes with a fixed concentration of E. coli 0113 LPS (4 ng/mL final concentration) and incubated at 37° C. for 3 hours with occasional shaking. Addition controls comprising rBPI23 at 0.05 μg/mL were also tested. Following incubation, 360 μL of Dulbecco's phosphate buffered saline (D-PBS; Grand Island Biological Co. (GIBCO), Long Island, N.Y.) were added per tube to obtain an LPS concentration of 200 pg/mL for the LAL assay. Each sample was then transferred into Immulon II strips (Dynatech, Chantilly, Va.) in volumes of 50 μl per well.
Limulus amoebocyte Lysate (Quantitative Chromogenic LAL kit, Whitaker Bioproducts, Inc., Walkersville, Md.) was added at 50 μL per well and the wells were incubated at room temperature for 25 minutes. Chromogenic substrate was then added at a volume of 100 μL per well and was well mixed. After incubation for 20 to 30 minutes at room temperature, the reaction was stopped with addition of 100 μL of 25% (v/v) acetic acid. Optical density at 405 nm was then measured in a multiplate reader (Model Vmax, […], Menlo Park, Calif.) with the results shown in FIG. 2 in terms of percent inhibition of LPS. In this Figure, the filled circle represents rBPI23; the open circle represents Asp-N fragment A3; the x represents Asp-N fragment A2, the filled square represents Asp-N fragment A4; the filled triangle represents Asp-N fragment A1A2; the open square represents Asp-N fragment A6a; the small open triangle represents CNBr fragment C3; and the small filled square represents CNBr fragment C1/C5.

[3] = system: Staphylococcus aureus; assay: Radial diffusion bactericidal assay, Staphylococcus aureus; format: cell-based
[4] = system: rough mutant E. coli J5 bacteria; assay: Radial diffusion bactericidal assay, E. coli J5; format: cell-based; details: for bactericidal activity (in words) / pmol added to well to achieve a 30 mm^2 bactericidal zone, E. coli J5: radial diffusion; for bactericidal activity (in words): E. coli J5; for pmol added to well to achieve a 30 mm^2 bactericidal zone, E. coli J5: PROBIT analysis, E. coli J5 (rough)
In short: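 Log-phase bacteria (3 h at 37 °C in tryptic soy broth), washed in 10 mM sodium phosphate pH 7.4, were embedded at 4×10^6 CFU/mL in underlayer agarose. BPI proteolytic fragments (5 or 10 μL) went into 3 mm wells for 3 h at 37 °C, then agarose overlay and overnight 37 °C growth. Clear zones were measured by micrometer.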

[5] = system: E. coli O18:K1:H7; assay: Radial diffusion bactericidal assay, E. coli O18:K1:H7; format: cell-based; details: FIG. 11b; up to about 2000 pmol
[6] = 3H-heparin binding assay (affinity and capacity)
In short: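 Peptide fragments were bound to PVDF-membrane wells and incubated with 3H-heparin in blocking buffer for 1 h at 4 °C. After washing, bound radioactivity was quantified by liquid scintillation counting, with BSA background subtracted; rBPI23 served as positive control.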

[7] = system: Klebsiella pneumoniae; assay: Radial diffusion bactericidal assay, Klebsiella pneumoniae; format: cell-based
[8] = system: E. coli 0111:B4 (smooth) bacteria; assay: Radial diffusion bactericidal assay, E. coli 0111:B4; format: cell-based; details: radial diffusion; for pmol added to well to achieve a 30 mm^2 bactericidal zone, E. coli O111:B4: PROBIT analysis, E. coli O111:B4 (smooth)
[9] = system: E. coli O75; assay: Radial diffusion bactericidal assay, E. coli O75; format: cell-based; details: FIG. 11d; up to about 2000 pmol
[10] = system: Pseudomonas aeruginosa; assay: Radial diffusion bactericidal assay, Pseudomonas aeruginosa; format: cell-based; details: FIG. 11a; up to about 2000 pmol
[11] = system: L-form of S. aureus ATCC 19640; assay: Activity against L-forms of gram-positive bacteria; format: cell-based
Method: The bactericidal capacity of BPI peptides provided by the invention was also tested against Gram-positive bacteria (See Table VIII A). […] In addition, peptides were tested for their activity against L-forms of gram-positive bacteria, such as the L-form of S. aureus ATCC 19640.

[12] = system: LPS-stimulated NO production by RAW 264.7 cells; assay: LPS-stimulated NO production by RAW 264.7 cells; format: cell-based, mouse
Method: An additional LPS neutralization screening assay for BPI functional domain peptides was developed using an assay for NO production in mouse cells treated with LPS (see Lorsbach et al., 1993, J. Biol. Chem. 268: 1908-1913). In this assay, mouse RAW 264.7 cells (ATCC Accession No. TIB71) were treated with bacterial LPS. The cells were incubated in 96-well plates and stimulated for 2 hours with E. coli 0113 LPS or zymosan, in the presence or absence of _-interferon, rLBP, fetal bovine serum (FBS) or normal human serum (NHS), or rBPI21Δcys. After this incubation, the cells were washed with fresh media and incubated overnight in media containing 10% FCS. The NO released from the cells accumulated in the media and spontaneously converted to nitrite. This nitrite was assayed in situ by the Griess reaction, as follows. The nitrite was reacted with the primary amine of an added sulfanilamide and formed a diazonium salt. This salt was then reacted with added naphthylethylenediamine to form a red azo-dyc. The Griess reaction was performed at room temperature in about 10 minutes. The amount of produced NO was estimated from a standard curve of Griess reaction products determined spectrophotometrically as Absorbance at a wavelength of 550 nm.

[13] = In vitro heparin-mediated lengthening of APTT / clotting time of heparinized plasma; format: biochemical, human
Method: In vitro, the effect of BPI combination functional domain peptides was determined on heparin-mediated lengthening of activated partial […] (APTT). The APTT is lengthened by the presence of endogenous or exogenous inhibitors of thrombin formation, such as therapeutically administered heparin. Thus, agents which neutralize the anti-coagulant effects of heparin will reduce the APTT measured by the test. Citrated human plasma (200 μL) was incubated for 1 minute at 37° C. with either 15 μL of diluent (0.15 M NaCl, 0.1 M Tris-HCl, pH 7.4) or 15 μL of the diluent also containing 25 μg/mL heparin (187 units/mg). Various concentrations (from 0.0 to 56 μg/mL) of rBPI23, rBPI21Δcys, or BPI combination peptides BPI.29 (the DIII homodimer) and BPI.30 (heterodimer DII+DIII) in a volume of 15 μL were added, followed immediately by 100 μL of thrombin reagent (Catalog No. 845-4, Sigma Chemical Co., St. Louis. MO). Clotting time ([…]) was measured using a BBL Fibrometer (Becton Dickenson Microbiology Systems, Cockeysville, Md.). […] FIG. 12e illustrates the results obtained with BPI.30 on a non-log scale.

[14] = In vivo APTT in heparinized rats; parameters: species or system Sprague-Dawley rats; details: 100 U/kg heparin i.v., test protein 5 minutes later, blood 2 minutes after
Method: The in vivo effect of exemplary BPI combination peptides on APTT in heparinized rats was determined and compared with the in vivo effect of rBPI23. APTT is lengthened by the presence of endogenous or exogenous inhibitors of thrombin formation, such as therapeutically administered heparin. Agents which neutralize the anti-coagulant effects of heparin will reduce the APTT as measured by this test. Sprague-Dawley rats housed under NIH guidelines were administered with 100 U/kg heparin by bolus intravenous injections via the animals' tail vein followed 5 minutes later by administration of varying amounts of test or control protein as compared with rBPI23. The APTT was then determined from blood samples collected from the abdominal aorta 2 minutes after the administration of the test or control protein. The APTT of untreated animals, as well as animals treated only with a BPI peptide, was also determined.

## KWKAQKRFLK [BPI.8]
[1]
  bactericidal activity (in words): low levels of bactericidal activity
[2]
  LAL / LPS inhibition activity (in words): no significant LPS inhibition activity
[3]; FIG. 10e
  bactericidal activity (in words): no bactericidal activity at concentrations of 800 μg/mL
[4]
  bactericidal activity (in words): little to no bactericidal activity; also recorded: no detectable bactericidal activity against E. coli J5 cells at concentrations of 1000 μg/mL; also recorded: little or no bactericidal activity
  pmol added to well to achieve a 30 mm^2 bactericidal zone, E. coli J5: 25,695.10 pmol
[5]
  bactericidal activity (in words): no bactericidal activity
[6]
  heparin binding activity (in words): little or no heparin binding activity
  heparin binding capacity (in words): low heparin binding capacity
[6]; heparin bound at saturation
  Heparin Capacity: 92.2 ng
[6]; read-out: Heparin Affinity
  Kd: 574 nM
[7]; FIG. 11c, up to about 2000 pmol
  bactericidal activity (in words): no bactericidal activity
[7]; FIG. 10d
  bactericidal activity (in words): no bactericidal activity at concentrations of 800 μg/mL
[8]; E. coli 0111:B4
  bactericidal activity (in words): little to no bactericidal activity
[8]
  pmol added to well to achieve a 30 mm^2 bactericidal zone, E. coli O111:B4: b (no detectable activity up to 5 μg/well)
[9]
  bactericidal activity (in words): no bactericidal activity
[10]
  bactericidal activity (in words): no bactericidal activity

## IKISGKWKAQKRKLK [BPI.120]
[3]; radial diffusion, PROBIT analysis, S. aureus
  pmol added to well to achieve a 30 mm^2 bactericidal zone, S. aureus: b (no detectable activity up to 5 μg/well)
[4]
  pmol added to well to achieve a 30 mm^2 bactericidal zone, E. coli J5: b (no detectable activity up to 5 μg/well)
[11]
  activity against L-form bacteria (in words): active against these L-form bacteria
[8]
  pmol added to well to achieve a 30 mm^2 bactericidal zone, E. coli O111:B4: b (no detectable activity up to 5 μg/well)

B1: rBPI23: recombinant 23 kD amino-terminal fragment, approximately the first 199 amino acid residues of human BPI (protein)
chain: VNPGVVVRISQKGLDYASQQGTAALQKELKRIKIPDYSDSFKIKHLGKGHYSFYSMDIREFQLPSSQISMVPNVGLKFSISNANIKISGKWKAQKRFLKMSGNFDLSIEGMSISADLKLGSNPTSGKPTITCSSCSSHINSVHVHISKSKVGWLIQLFHKKIESALRN
[1]
  bactericidal activity (in words): no bactericidal activity at concentrations of 100 μg/mL; also recorded: low bactericidal activity even at concentrations of 1000 μg/mL
[2]; read-out: IC50 of inhibition of the LPS-induced LAL reaction
  IC50: 9 nM
[4]
  lowest amount with measurable bactericidal activity: 0.75 pmol/well
  bactericidal activity (in words): showed bactericidal activity
[12]
  IC50 of inhibition of LPS-stimulated NO production: 30 to 100 ng/mL
[6]; 100 picomoles of each fragment per well, saturating 3H-heparin 20 μg/mL, mean of duplicate wells ± range
  cpm ^3H-Heparin bound: 51,222 ± 1,808 cpm
[13]; FIG. 12g
  effect on the clotting time of heparinized blood (in words): smaller effect
[13]; citrated human plasma, 25 μg/mL heparin, 0.0 to 56 μg/mL
  effect on heparin-mediated lengthening of APTT (in words): inhibits the heparin-mediated lengthening of APTT
[14]
  APTT in heparinized rats (in words): administration of about 5 mg/kg results in a APTT of the heparinized and BPI-treated animals that is almost the same as the untreated control animals
